In patent US20060069132A1, “Azolecarboxamide herbicides” (priority 2004, published 2006):
Where two headings read alike, the source gives them in different places.

Legend:
ducksalad = assay: Test B flooded paddy test; format: in vivo, Heteranthera limosa; conditions: 1000 g ai/ha, scale 0 to 100 (0 no effect, 100 complete control); for pest or weed control at 1000 g/ha: Heteranthera limosa, 336 h, read-out: Ducksalad plant response rating
How it was run: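 After treating 2-leaf paddy plants or 2–18 cm postemergence plants (1 to 4 leaves) with formulated chemical, researchers kept them in a greenhouse for 13–15 days. Effects were judged visually versus controls: 0 indicates none, 100 total control.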

velvetleaf = assay: Test A pre-/postemergence herbicide test; format: in vivo, Abutilon theophrasti
How it was run: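 Visual injury scores on a 0–100 scale (100 = complete control) taken about ten days post-treatment in greenhouse against untreated controls; dash means no result. Treatments: preemergence soil spray and postemergence spray to runoff on one- to two-leaf plants 2 to 10 cm tall, surfactant-containing formulation.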

corn = assay: Test B pre-/postemergence herbicide test; format: in vivo, Zea mays; conditions: for plant injury at 125 g/ha / plant injury at 500 g/ha / Corn plant response rating (crop injury, 0 = no effect, 100 = complete kill) at 500 g/ha: Zea mays; for plant injury at 125 g/ha / plant injury at 500 g/ha: post-emergence, read-out: Corn plant response rating; for Corn plant response rating (crop injury, 0 = no effect, 100 = complete kill) at 500 g/ha: pre-emergence
How it was run: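 Test chemicals in a non-phytotoxic solvent mixture with surfactant were applied preemergence to seeded species and postemergence to plants 2-18 cm tall (1- to 4-leaf stage); rice and barnyardgrass were also tested in a flooded paddy at the 2-leaf stage. Visual rating versus controls after 13-15 days in greenhouse, scale 0 (no effect) to 100 (complete control).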

[1] = Postemergence, 2000 g ai/ha, 0 to 100 scale, 0 no effect, 100 complete control
[2] = Preemergence, 500 g ai/ha, visual rating, 0 to 100 scale (0 no effect, 100 complete control)
[3] = Postemergence, 500 g ai/ha, visual rating after 13 to 15 days, scale 0 (no effect) to 100 (complete control)
[4] = Preemergence, 500 g ai/ha, scale 0 to 100
[5] = postemergence, 125 g ai/ha, visual rating, scale 0 (no effect) to 100 (complete control)
[6] = preemergence, 125 g ai/ha, 0 to 100 scale, 0 is no effect, 100 is complete control
[7] = Postemergence, 500 g ai/ha, 0 to 100 scale, 0 no effect, 100 complete control
[8] = Preemergence, 2000 g ai/ha, visual rating, 0 to 100 scale (0 no effect, 100 complete control)
[9] = preemergence, 500 g ai/ha, visual injury, 0 to 100 scale (0 no effect, 100 complete control)
[10] = 500 g ai/ha, visual rating 0-100, 0 no effect, 100 complete control, preemergence
[11] = postemergence, 500 g ai/ha, visual rating, scale 0 (no effect) to 100 (complete control)
[12] = 125 g ai/ha, 0 = no effect, 100 = complete control, preemergence
[13] = 500 g ai/ha, visual rating, 0 = no effect, 100 = complete control, preemergence
[14] = postemergence, 500 g ai/ha, scale 0 to 100, 0 is no effect, 100 is complete control
[15] = 500 g ai/ha, visual rating, 0 = no effect, 100 = complete control
[16] = 125 g ai/ha, visual rating, scale 0 (no effect) to 100 (complete control), postemergence
[17] = 125 g ai/ha, 0 is no effect, 100 is complete control, preemergence
[18] = Postemergence, 500 g ai/ha, scale 0 (no effect) to 100 (complete control)
[19] = postemergence, 125 g ai/ha, scale 0 to 100

| SMILES | Ducksalad plant response rating (ducksalad; visual rating, 13 to 15 days) | Plant response rating, Velvetleaf (velvetleaf; [1]) | Corn plant response rating (corn; [5]) | Velvetleaf plant response rating (velvetleaf; [7]) | Velvetleaf plant response rating (velvetleaf; [8]) | Velvetleaf plant response rating (velvetleaf; [9]) | Corn plant response rating (corn; [11]) | Plant response rating, Corn (corn; [13]) | Ducksalad plant response rating (ducksalad) | other results |
| --- | --- | --- | --- | --- | --- | --- | --- | --- | --- | --- |
| CCn1nc(C(C)(C)C)cc1C(=O)Nc1cccc(C(=O)NCCF)c1 [Compound 45] | 80 | 65 |  |  |  |  |  |  |  | Velvetleaf plant response rating (velvetleaf; [2]): 25; Velvetleaf plant response rating (velvetleaf; Preemergence, 2000 g ai/ha, 0 to 100 scale, 0 no effect, 100 complete control): 65; Corn plant response rating (corn; Postemergence, 125 g ai/ha, scale 0 (no effect) to 100 (complete control)): 20; Plant response rating, Corn (corn; [3]): 30; Corn plant response rating (corn; [4]): 30 |
| CCn1nc(C(C)(C)C)cc1C(=O)Nc1cccc(C(=O)NC(C)C)c1 [Compound 51] | 80 |  | 0 |  |  |  |  |  |  | Velvetleaf plant response rating (velvetleaf; Postemergence, 125 g ai/ha, 0 to 100 scale, 0 no effect, 100 complete control): 40; Velvetleaf plant response rating (velvetleaf; [2]): 100; Velvetleaf plant response rating (velvetleaf; preemergence, 125 g ai/ha, visual injury, 0 to 100 scale (0 no effect, 100 complete control)): 20; Plant response rating, Corn (corn; [3]): 0; Corn plant response rating (corn; [4]): 50; Plant response rating, Corn (corn; [6]): 0 |
| CCn1nc(C(C)(C)C)cc1C(=O)Nc1cccc(C(C)=O)c1 [Compound 122] | 80 | 70 | 10 | 45 | 70 | 40 | 10 |  |  | Plant response rating, Corn (corn; [10]): 30; Plant response rating, Corn (corn; [6]): 0 |
| CCOc1cccc(NC(=O)c2cc(C(C)(C)C)nn2CC)c1 [Compound 136] | 90 | 75 | 10 | 55 | 30 | 25 | 30 |  |  | Plant response rating, Corn (corn; [10]): 30; Plant response rating, Corn (corn; [6]): 10 |
| CCn1nc(C(C)(C)C)cc1C(=O)Nc1cccc(OCCCF)c1 [Compound 138] | 80 | 60 | 20 | 20 | 50 | 20 | 30 |  |  | Plant response rating, Corn (corn; [10]): 10; Plant response rating, Corn (corn; [6]): 0 |
| CCn1nc(C(C)(C)C)cc1C(=O)Nc1cc(C(=O)NCC2CC2)ccn1 [Compound 155] | 100 |  | 10 |  |  |  | 20 |  |  | Plant response rating, Corn (corn; [10]): 30; Plant response rating, Corn (corn; [6]): 0 |
| CCc1nc(C(C)(C)C)sc1C(=O)Nc1cccc(C(=O)NCCF)c1 [Compound 209] | 80 | 20 | 20 | 10 | 75 | 10 | 30 |  |  | Corn plant response rating (0 to 100 scale) (corn; [12]): 0; Plant response rating, Corn (corn; [10]): 50 |
| CCc1nc(C(C)(C)C)sc1C(=O)Nc1cccc(C(=O)NC(C)(C)C)n1 [Compound 216] | 80 | 35 | 0 | 25 | 30 | 10 | 10 | 0 |  | Corn plant response rating (0 to 100 scale) (corn; [12]): 0 |
| CCN(CC)C(=O)c1cncc(NC(=O)c2cc(C(C)(C)C)nn2CC)c1 [Compound 261, 5-[[[3-(1,1-dimethylethyl)-1-ethyl-1H-pyrazol-5-yl]carbonyl]amino]-N,N-diethyl-3-pyridinecarboxamide] |  |  |  |  |  |  |  |  |  | pest or weed control at 1000 g/ha (ducksalad): 80%; plant injury at 125 g/ha (corn; [5]): 10%; plant injury at 500 g/ha (corn; [14]): 20%; Corn plant response rating (crop injury, 0 = no effect, 100 = complete kill) at 500 g/ha (corn; [15]): 0% |
| CCNC(=O)c1ccc(F)c(NC(=O)c2cc(C(C)(C)C)nn2CC)n1 [Compound 278] |  | 25 | 10 | 20 | 35 | 20 |  | 20 | 80 | Corn plant response rating (0 to 100 scale) (corn; [12]): 0; Corn plant response rating (corn; [14]): 20 |
| CCn1nc(C(C)(C)C)cc1C(=O)Nc1nc(C(=O)N2CC=CC2)ccc1F [Compound 281] |  | 40 | 0 | 35 | 35 | 10 |  | 0 | 80 | Corn plant response rating (0 to 100 scale) (corn; [12]): 0; Corn plant response rating (corn; [14]): 10 |
| C#CCNC(=O)c1cc(NC(=O)c2cc(C(C)(C)C)nn2CC)ccn1 [Compound 283] |  | 35 | 0 | 15 | 15 | 0 |  | 0 | 70 | Corn plant response rating (corn; [14]): 10 |
| CCn1nc(C(C)(C)C)cc1C(=O)Nc1cncc(C(=O)N2CC=CC2)n1 [Compound 290] |  | 30 |  | 20 | 30 | 15 |  | 0 | 70 | Corn plant response rating (0 to 100 scale) (corn; [12]): 0; Corn plant response rating (corn; [16]): 0; Corn plant response rating (corn; [14]): 10 |
| C#CCNC(=O)c1cccc(NC(=O)c2sc(C(C)(C)C)nc2CC)c1 [Compound 319] |  | 30 |  | 20 | 45 | 35 |  | 40 | 90 | Plant response rating (0 to 100 scale), Corn (corn; [17]): 10; Corn plant response rating (corn; [16]): 20; Corn plant response rating (corn; [14]): 20 |
| CCOC(=O)c1cccc(NC(=O)c2nn(C(C)(C)C)nc2CC)c1 [Compound 360, ethyl 3-[[[2-(1,1-dimethylethyl)-5-ethyl-2H-1,2,3-triazol-4-yl]carbonyl]amino]benzoate] |  |  |  |  |  |  |  |  |  | pest or weed control at 1000 g/ha (ducksalad): 70%; Plant response rating (0 to 100 scale), Corn (corn; [17]): 10; plant injury at 125 g/ha (corn; 125 g ai/ha, visual rating, scale 0 (no effect) to 100 (complete control)): 10%; plant injury at 500 g/ha (corn; [14]): 20%; Corn plant response rating (crop injury, 0 = no effect, 100 = complete kill) at 500 g/ha (corn; [15]): 40% |
| CCn1nc(C(C)(C)C)cc1C(=O)Nc1cccc(OS(=O)(=O)CC)c1 [Compound 408] |  |  |  |  |  |  |  |  | 90 | Plant response rating (0 to 100 scale), Corn (corn; [17]): 10; Corn plant response rating (corn; [18]): 10; Corn plant response rating (corn; [19]): 10 |
| CCN(C(C)=O)C(=O)c1ccc(F)c(NC(=O)c2cc(C(C)(C)C)nn2CC)c1 [Compound 413] |  | 55 |  | 40 | 35 | 35 |  |  | 80 | Plant response rating (0 to 100 scale), Corn (corn; [17]): 0; Corn plant response rating (corn; [18]): 20; Corn plant response rating (corn; [19]): 10 |
